Results as given in paper PMC10215355, “Chemical Composition of the Cinnamomum malabatrum Leaf Essential Oil and Analysis of Its Antioxidant, Enzyme Inhibitory and Antibacterial Activities” (Antibiotics, 2023).
≈ marks a conversion by molar mass, not a printed value.

How the values were obtained:
[1] = test system: Bacillus cereus; test: Disc diffusion method; type: cell-based; details: 8 mm disc, 10 μL oil, 24 h
[2] = DPPH radical scavenging; details: 0 to 100 µg/mL series
Protocol: (§1) The concentration of essential oil used was a different series from 0 to 100 μg/mL for each radical quenching assay. The quenching of DPPH radicals was analyzed using the methods of [70]. The ABTS radicals scavenging activity was analyzed according to the methods of Li et al.. The hydrogen peroxide quenching potential of the essential oil was following the methods of Munteanu and […] [72]. The ferric-reducing abilities of the essential oil were estimated according to the methods described by He et al.. The methods described by Okoh et al.

[3] = test system: Pseudomonas aeruginosa; test: Disc diffusion method; type: cell-based; details: 8 mm disc, 10 μL oil, 24 h
[4] = test system: Pseudomonas aeruginosa; test: Minimum inhibitory concentration (96-well, TTC); type: cell-based
[5] = test system: Staphylococcus aureus; test: Disc diffusion method; type: cell-based; details: 8 mm disc, 10 μL oil, 24 h
[6] = test system: Salmonella enterica; test: Minimum inhibitory concentration (96-well, TTC); type: cell-based
Description: (§2) The bacteria were procured from Microbial Type Culture Collection and Gene Bank (MTCC), Chandigarh and maintained under standard conditions as prescribed by Bonnet, et al.. The bacterial strains used include Escherichia coli, Pseudomonas aeruginosa, Staphylococcus aureus, Bacillus cereus, Streptococcus pyogenes and Salmonella enterica.
The determination of the MIC value was made according to the methods described by Campana, et al.. Before beginning, the density of the inoculum was spectrophotometrically set to 5 × 10^5 CFU/mL. From this, about 50 µL was transferred to individual wells of a 96-well plate containing different concentrations of C. malabatrum essential oil. Later, 2,3,5-triphenyltetrazolium chloride (10 µL) was added to each well; the pink color of the 2,3,5-triphenyltetrazolium chloride was lost in the absence of bacterial growth. The MIC value was considered as the lowest concentration without a detectable pink color.

[7] = test system: Escherichia coli; test: Minimum inhibitory concentration (96-well, TTC); type: cell-based
[8] = test system: Salmonella enterica; test: Disc diffusion method; type: cell-based; details: 8 mm disc, 10 μL oil, 24 h
Description: as §2
Initially, the bacteria cultured were completed in Luria-Bertani broth; for the antibacterial study, the inoculum of the bacteria was made on a Mueller Hinton Agar (MHA) agar plate (Himedia, Mumbai, Maharashtra, India) at a thickness of 5 mm. Later, a filter paper disc (8 mm in diameter) containing the leaf essential oil of C. malabatrum (10 μL) was placed in the agar plate at a distance of 50 mm. At the end of 24 h, the formation of the growth inhibition zone was estimated.

[9] = test system: Escherichia coli; test: Disc diffusion method; type: cell-based; details: 8 mm disc, 10 μL oil, 24 h
[10] = Ferric-reducing potential (FRAP); details: 0 to 100 µg/mL series
Protocol: as §1

[11] = H2O2 radical scavenging (hydrogen peroxide quenching); details: 0 to 100 µg/mL series
Protocol: as §1

[12] = target: α-amylase; test: α-Amylase inhibition; type: biochemical; details: 0–100 μg/mL
[13] = test system: Streptococcus pyogenes; test: Minimum inhibitory concentration (96-well, TTC); type: cell-based
[14] = ABTS radical scavenging; details: 0 to 100 µg/mL series
Protocol: as §1

[15] = test system: Streptococcus pyogenes; test: Disc diffusion method; type: cell-based; details: 8 mm disc, 10 μL oil, 24 h
[16] = target: aldose reductase (Homo sapiens, UniProt P15121); test: Aldose reductase inhibition; type: biochemical; details: 0–100 μg/mL
[17] = target: α-glucosidase; test: α-Glucosidase inhibition; details: 0–100 μg/mL
Protocol: The enzyme-inhibitory potential of the essential oil was evaluated by mixing different concentrations (0–100 μg/mL) against the respective enzymes and their substrates. The enzyme activities will be estimated in terms of the substrate utilized after incubation. The inhibition of α-amylase [75], α-glucosidase [76], aldose reductase [77] and sorbitol dehydrogenase [78] was carried out according to the methods previously described.

[18] = Lipid peroxidation inhibition (ex vivo); details: 0 to 100 µg/mL series
Protocol: as §1

[19] = target: T1, sorbitol dehydrogenase (Homo sapiens, UniProt Q00796); test: Sorbitol dehydrogenase inhibition; type: biochemical; details: 0–100 μg/mL
T1 sequence (Q00796 1-357): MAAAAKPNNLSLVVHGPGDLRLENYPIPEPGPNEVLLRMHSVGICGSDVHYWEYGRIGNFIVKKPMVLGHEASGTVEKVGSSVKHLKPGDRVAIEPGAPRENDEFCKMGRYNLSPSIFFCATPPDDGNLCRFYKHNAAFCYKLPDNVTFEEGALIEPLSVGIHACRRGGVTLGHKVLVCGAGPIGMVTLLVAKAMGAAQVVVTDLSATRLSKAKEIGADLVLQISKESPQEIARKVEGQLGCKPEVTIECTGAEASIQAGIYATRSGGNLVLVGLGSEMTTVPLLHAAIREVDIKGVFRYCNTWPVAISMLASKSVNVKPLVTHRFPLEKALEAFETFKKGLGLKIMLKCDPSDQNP

[20] = test system: Bacillus cereus; test: Minimum inhibitory concentration (96-well, TTC); type: cell-based
[21] = test system: Staphylococcus aureus; test: Minimum inhibitory concentration (96-well, TTC); type: cell-based

Structure (SMILES) | Zone of Inhibition [1] | DPPH radical scavenging IC50 [2] | MIC [4] | Zone of Inhibition [5] | MIC [6] | MIC [7] | Zone of Inhibition [8] | Zone of Inhibition [9] | H2O2 radical scavenging IC50 [11] | α-Amylase inhibition IC50 [12] | MIC [13] | ABTS radical scavenging IC50 [14] | Zone of Inhibition [15] | IC50 [16] | α-Glucosidase inhibition IC50 [17] | Lipid peroxidation inhibition IC50 [18] | IC50 [19] | MIC [20] | MIC [21] | other results
C=CC(C)(O)CCC=C(C)C (stereo not shown) [Linalool] | 17.6 ± 0.3 mm | 35.22 ± 0.11 µg/mL | 325 ± 100 µg/mL (≈ 2110 µM) | 18.1 ± 0.2 mm | 325 µg/mL (≈ 2110 µM) | 625 ± 50 µg/mL (≈ 4050 µM) | 16.8 ± 0.3 mm | 17.8 ± 0.1 mm | 38.09 ± 2.45 µg/mL | 62.34 ± 2.91 µg/mL | 325 µg/mL (≈ 2110 µM) | 40.01 ± 1.33 µg/mL | 17.9 ± 0.1 mm | 383 µM | 30.93 ± 3.41 µg/mL | 78.49 ± 3.07 µg/mL | 573 µM | 625 ± 100 µg/mL (≈ 4050 µM) | 325 µg/mL (≈ 2110 µM) | Zone of Inhibition [3]: 19.3 ± 0.2 mm; Ferric-reducing potential IC50 [10]: 35.93 ± 0.24 µg/mL
CNC(C)C1CCC(N)C(OC2C(N)CC(N)C(OC3OCC(C)(O)C(NC)C3O)C2O)O1 (stereo not shown) [GM, gentamicin] | 21.3 ± 0.5 mm |  | 167 µg/mL (≈ 350 µM) | 18.5 ± 0.5 mm | 167 µg/mL (≈ 350 µM) | 325 µg/mL (≈ 680 µM) | 19.9 ± 0.3 mm | 21.3 ± 0.3 mm |  |  | 167 µg/mL (≈ 350 µM) |  | 19.2 ± 0.7 mm |  |  |  |  | 325 µg/mL (≈ 680 µM) | 325 µg/mL (≈ 680 µM) | 
O=C1O[C@H]([C@@H](O)CO)C(O)=C1O [Ascorbic Acid] |  | 8.13 ± 0.09 µg/mL |  |  |  |  |  |  | 19.11 ± 0.26 µg/mL | 45.17 ± 2.36 µg/mL |  | 12.82 ± 0.40 µg/mL |  | 163 µM | 36.03 ± 1.98 µg/mL | 63.02 ± 0.33 µg/mL | 341 µM |  |  | 
